# According to patent publication US20260224588A1, “BENZODIAZEPINONE-DERIVED INHIBITORS OF EGFR AND HER2” (The Research Foundation for the State University of New York, priority 2023, published 2026):
# Legend:
# Assay in all cases: KINOMEscan
# Type in all cases: binding
# Details in all cases: 1 μM of compound 4; read-out: POC
# CDC2L2 = CDC2L2 (Homo sapiens, UniProt Q9UQ88)
# PIK3CA(E545A) = PIK3CA(E545A) (Homo sapiens, UniProt P42336, E545A)
# EPHB2 = molecular target: T1, EPHB2 (Homo sapiens, UniProt P29323)
# T1 construct: purchased Eurofins DiscoverX (KINOMEscan service)
# NEK4 = NEK4 (Homo sapiens, UniProt P51957)
# p38-alpha = molecular target: T2, p38-alpha (Homo sapiens, UniProt Q16539)
# T2 construct: purchased Eurofins DiscoverX Corporation (KINOMEscan)
# PAK1 = molecular target: T3, PAK1 (Homo sapiens, UniProt Q13153)
# T3 construct: purchased Eurofins DiscoverX Corporation (KINOMEscan)
# [1] = molecular target: T4, RPS6KA5(Kin.Dom.1-N-terminal) (Homo sapiens, UniProt O75582)
# T4 construct: RPS6KA5(Kin.Dom.1-N-terminal); purchased Eurofins DiscoverX Corporation (KINOMEscan screening service)
# PRKD2 = PRKD2 (Homo sapiens, UniProt Q9BZL6)
# ALK(C1156Y) = ALK(C1156Y) (Homo sapiens, UniProt Q9UM73, C1156Y)
# MAP3K4 = MAP3K4 (Homo sapiens, UniProt Q9Y6R4)
# HPK1 = molecular target: T5, HPK1 (Homo sapiens, UniProt Q92918)
# T5 construct: purchased Eurofins DiscoverX Corporation
# DAPK1 = DAPK1 (Homo sapiens, UniProt P53355)
# SIK = molecular target: T6, SIK (Homo sapiens, UniProt P57059)
# T6 construct: purchased Eurofins DiscoverX (KINOMEscan service)
# NIK = molecular target: T7, NIK (Homo sapiens, UniProt Q99558)
# T7 construct: purchased Eurofins DiscoverX Corporation (KINOMEscan)
# FLT3(D835V) = molecular target: T8, FLT3(D835V) (Homo sapiens, UniProt P36888, D835V)
# T8 construct: purchased Eurofins DiscoverX Corporation
# CSF1R = CSF1R (Homo sapiens, UniProt P07333)
# IRAK3 = IRAK3 (Homo sapiens, UniProt Q9Y616)
# LIMK2 = LIMK2 (Homo sapiens, UniProt P53671)
# CDK9 = CDK9 (Homo sapiens, UniProt P50750)
# CDK9, sequence (P50750 whole entry): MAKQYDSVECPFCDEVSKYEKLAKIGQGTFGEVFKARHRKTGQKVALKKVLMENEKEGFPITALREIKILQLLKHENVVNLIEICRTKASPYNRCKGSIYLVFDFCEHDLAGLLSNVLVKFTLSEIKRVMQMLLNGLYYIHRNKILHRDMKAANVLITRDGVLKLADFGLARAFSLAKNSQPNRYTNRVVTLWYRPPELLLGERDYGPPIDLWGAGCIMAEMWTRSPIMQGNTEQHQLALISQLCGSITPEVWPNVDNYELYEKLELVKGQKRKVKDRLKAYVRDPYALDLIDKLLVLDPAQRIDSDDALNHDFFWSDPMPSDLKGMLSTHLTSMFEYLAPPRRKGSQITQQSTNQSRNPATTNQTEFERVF
# DYRK1B = DYRK1B (Homo sapiens, UniProt Q9Y463)
# CDK7 = CDK7 (Homo sapiens, UniProt P50613)
# QSK = molecular target: T9, QSK (Homo sapiens, UniProt Q9Y2K2)
# T9 construct: purchased Eurofins DiscoverX Corporation (KINOMEscan screening service)
# CLK1 = CLK1 (Homo sapiens, UniProt P49759)
# CLK1, sequence (P49759 whole entry): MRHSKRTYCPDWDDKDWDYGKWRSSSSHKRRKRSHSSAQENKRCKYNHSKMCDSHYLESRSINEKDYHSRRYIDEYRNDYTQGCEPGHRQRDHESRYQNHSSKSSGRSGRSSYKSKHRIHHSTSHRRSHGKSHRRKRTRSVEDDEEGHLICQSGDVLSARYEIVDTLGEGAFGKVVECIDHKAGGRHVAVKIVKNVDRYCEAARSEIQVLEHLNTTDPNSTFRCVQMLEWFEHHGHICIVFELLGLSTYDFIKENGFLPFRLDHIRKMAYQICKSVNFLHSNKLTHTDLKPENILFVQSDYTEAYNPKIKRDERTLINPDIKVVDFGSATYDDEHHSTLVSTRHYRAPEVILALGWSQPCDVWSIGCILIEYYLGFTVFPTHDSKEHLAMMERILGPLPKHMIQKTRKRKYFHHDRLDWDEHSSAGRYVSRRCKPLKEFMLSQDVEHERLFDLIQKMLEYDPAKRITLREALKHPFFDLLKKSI
# CAMK2A = CAMK2A (Homo sapiens, UniProt Q9UQM7)
# CAMK2A, sequence (Q9UQM7 whole entry): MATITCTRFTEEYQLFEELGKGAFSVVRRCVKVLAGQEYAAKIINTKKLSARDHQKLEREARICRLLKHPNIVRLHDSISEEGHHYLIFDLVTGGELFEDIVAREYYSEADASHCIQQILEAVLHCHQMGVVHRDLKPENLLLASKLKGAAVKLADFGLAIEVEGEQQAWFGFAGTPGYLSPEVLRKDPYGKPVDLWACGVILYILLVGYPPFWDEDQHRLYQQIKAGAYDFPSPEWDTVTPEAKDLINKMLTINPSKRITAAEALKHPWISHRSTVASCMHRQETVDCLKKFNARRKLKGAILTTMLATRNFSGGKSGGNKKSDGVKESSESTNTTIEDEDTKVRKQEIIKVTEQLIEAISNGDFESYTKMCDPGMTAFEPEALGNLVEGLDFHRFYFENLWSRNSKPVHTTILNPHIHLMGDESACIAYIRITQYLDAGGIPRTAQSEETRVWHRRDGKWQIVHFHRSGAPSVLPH
# PIK3CA(I800L) = PIK3CA(I800L) (Homo sapiens, UniProt P42336, I800L)
# NEK9 = molecular target: T10, NEK9 (Homo sapiens, UniProt Q8TD19)
# T10 construct: purchased Eurofins DiscoverX Corporation (KINOMEscan)
# [2] = molecular target: T11, ABL1(F317L)-nonphosphorylated (Homo sapiens, UniProt P00519, F317L)
# T11 construct: purchased Eurofins DiscoverX Corporation
# CSNK1E = CSNK1E (Homo sapiens, UniProt P49674)
# PIKFYVE = PIKFYVE (Homo sapiens, UniProt Q9Y2I7)
# PIKFYVE, sequence (Q9Y2I7 whole entry): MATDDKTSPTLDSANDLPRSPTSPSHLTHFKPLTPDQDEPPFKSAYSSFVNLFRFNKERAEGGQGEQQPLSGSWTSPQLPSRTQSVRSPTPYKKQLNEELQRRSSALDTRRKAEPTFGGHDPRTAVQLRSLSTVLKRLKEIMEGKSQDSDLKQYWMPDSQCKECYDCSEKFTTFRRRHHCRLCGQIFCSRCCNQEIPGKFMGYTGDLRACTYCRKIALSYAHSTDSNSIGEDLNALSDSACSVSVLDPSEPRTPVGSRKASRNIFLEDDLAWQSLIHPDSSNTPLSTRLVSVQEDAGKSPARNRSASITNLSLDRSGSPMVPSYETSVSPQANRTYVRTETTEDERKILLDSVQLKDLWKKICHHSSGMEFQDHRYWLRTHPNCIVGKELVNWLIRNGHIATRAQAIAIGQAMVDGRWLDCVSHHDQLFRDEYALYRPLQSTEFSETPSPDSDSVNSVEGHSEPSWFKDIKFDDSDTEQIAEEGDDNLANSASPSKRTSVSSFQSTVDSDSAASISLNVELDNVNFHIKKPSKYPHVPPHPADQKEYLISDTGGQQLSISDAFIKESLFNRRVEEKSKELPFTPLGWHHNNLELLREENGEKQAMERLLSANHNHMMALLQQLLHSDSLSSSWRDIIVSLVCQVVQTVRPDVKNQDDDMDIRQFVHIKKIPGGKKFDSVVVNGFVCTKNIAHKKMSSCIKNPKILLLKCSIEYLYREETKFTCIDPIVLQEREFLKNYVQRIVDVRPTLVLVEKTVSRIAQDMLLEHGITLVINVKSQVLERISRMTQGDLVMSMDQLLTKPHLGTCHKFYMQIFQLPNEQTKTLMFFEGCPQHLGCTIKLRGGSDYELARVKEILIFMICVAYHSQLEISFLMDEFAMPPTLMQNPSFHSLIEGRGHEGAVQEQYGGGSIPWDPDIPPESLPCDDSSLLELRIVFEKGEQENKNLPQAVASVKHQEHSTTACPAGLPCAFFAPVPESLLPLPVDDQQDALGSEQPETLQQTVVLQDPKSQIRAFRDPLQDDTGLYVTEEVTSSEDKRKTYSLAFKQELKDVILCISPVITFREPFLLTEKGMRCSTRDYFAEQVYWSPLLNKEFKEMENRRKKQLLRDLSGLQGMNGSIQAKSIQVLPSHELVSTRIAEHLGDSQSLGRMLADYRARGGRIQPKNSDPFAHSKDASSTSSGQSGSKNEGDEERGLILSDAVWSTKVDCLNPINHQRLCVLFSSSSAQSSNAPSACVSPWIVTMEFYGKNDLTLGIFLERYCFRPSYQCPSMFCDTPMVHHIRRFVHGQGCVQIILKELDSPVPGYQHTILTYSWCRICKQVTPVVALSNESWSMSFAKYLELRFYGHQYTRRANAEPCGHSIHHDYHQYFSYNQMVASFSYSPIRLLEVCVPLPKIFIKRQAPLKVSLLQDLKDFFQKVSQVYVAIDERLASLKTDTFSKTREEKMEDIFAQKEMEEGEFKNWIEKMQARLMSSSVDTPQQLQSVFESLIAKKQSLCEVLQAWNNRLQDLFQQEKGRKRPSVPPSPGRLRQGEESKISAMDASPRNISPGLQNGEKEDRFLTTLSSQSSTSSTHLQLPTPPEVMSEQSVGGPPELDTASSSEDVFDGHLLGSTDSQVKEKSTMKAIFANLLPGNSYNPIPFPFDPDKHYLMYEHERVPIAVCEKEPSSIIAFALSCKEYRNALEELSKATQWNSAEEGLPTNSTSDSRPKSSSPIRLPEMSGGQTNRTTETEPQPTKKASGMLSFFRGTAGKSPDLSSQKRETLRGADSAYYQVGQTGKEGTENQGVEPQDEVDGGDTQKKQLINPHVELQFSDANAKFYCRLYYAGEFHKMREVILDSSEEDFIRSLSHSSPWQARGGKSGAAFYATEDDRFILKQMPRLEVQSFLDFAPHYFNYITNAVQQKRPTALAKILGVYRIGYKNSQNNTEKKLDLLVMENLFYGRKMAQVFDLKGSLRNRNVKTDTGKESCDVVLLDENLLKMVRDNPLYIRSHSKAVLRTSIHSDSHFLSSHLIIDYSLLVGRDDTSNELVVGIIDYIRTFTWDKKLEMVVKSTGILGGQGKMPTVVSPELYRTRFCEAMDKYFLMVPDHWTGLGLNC
# LTK = LTK (Homo sapiens, UniProt P29376)
# LTK, sequence (P29376 17-864): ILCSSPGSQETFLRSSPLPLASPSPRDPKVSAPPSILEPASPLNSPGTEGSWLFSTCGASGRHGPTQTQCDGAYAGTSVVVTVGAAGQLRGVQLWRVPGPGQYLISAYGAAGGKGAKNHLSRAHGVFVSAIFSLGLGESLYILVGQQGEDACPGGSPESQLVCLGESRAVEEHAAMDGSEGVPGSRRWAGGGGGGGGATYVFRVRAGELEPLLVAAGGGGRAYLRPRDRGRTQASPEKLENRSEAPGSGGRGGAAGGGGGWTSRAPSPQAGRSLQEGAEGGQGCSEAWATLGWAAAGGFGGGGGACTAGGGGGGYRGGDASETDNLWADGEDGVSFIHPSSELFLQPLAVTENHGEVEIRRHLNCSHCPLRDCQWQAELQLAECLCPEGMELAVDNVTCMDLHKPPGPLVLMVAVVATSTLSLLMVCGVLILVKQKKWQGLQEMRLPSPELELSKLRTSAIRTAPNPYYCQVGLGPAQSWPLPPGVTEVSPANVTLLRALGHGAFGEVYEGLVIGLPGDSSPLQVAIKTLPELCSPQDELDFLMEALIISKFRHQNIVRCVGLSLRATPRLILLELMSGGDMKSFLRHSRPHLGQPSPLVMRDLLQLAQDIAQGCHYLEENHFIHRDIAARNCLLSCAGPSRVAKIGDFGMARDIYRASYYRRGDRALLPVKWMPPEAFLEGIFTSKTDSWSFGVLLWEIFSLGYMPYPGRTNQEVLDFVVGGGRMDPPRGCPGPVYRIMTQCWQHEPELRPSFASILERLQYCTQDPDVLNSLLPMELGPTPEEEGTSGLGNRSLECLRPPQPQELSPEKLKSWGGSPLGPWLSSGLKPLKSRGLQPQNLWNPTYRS
# TNK2 = molecular target: T12, TNK2 (Homo sapiens, UniProt Q07912)
# T12 construct: purchased Eurofins DiscoverX Corporation
# ULK1 = molecular target: T13, ULK1 (Homo sapiens, UniProt O75385)
# T13 construct: purchased Eurofins DiscoverX
# PRKG2 = PRKG2 (Homo sapiens, UniProt Q13237)
# FES = molecular target: T14, FES (Homo sapiens, UniProt P07332)
# T14 construct: purchased Eurofins DiscoverX Corporation
# p38-beta = molecular target: T15, p38-beta (Homo sapiens, UniProt Q15759)
# T15 construct: purchased Eurofins DiscoverX Corporation (KINOMEscan)
# [3] = molecular target: T16, ABL1(Q252H)-nonphosphorylated (Homo sapiens, UniProt P00519, Q252H)
# T16 construct: purchased Eurofins DiscoverX Corporation
# RET(V804M) = molecular target: T17, RET(V804M) (Homo sapiens, UniProt P07949, V804M)
# T17 construct: purchased Eurofins DiscoverX Corporation (KINOMEscan screening service)
# FGFR2 = molecular target: T18, FGFR2 (Homo sapiens, UniProt P21802)
# T18 construct: purchased Eurofins DiscoverX Corporation
# CDC2L2, sequence (Q9UQ88 whole entry): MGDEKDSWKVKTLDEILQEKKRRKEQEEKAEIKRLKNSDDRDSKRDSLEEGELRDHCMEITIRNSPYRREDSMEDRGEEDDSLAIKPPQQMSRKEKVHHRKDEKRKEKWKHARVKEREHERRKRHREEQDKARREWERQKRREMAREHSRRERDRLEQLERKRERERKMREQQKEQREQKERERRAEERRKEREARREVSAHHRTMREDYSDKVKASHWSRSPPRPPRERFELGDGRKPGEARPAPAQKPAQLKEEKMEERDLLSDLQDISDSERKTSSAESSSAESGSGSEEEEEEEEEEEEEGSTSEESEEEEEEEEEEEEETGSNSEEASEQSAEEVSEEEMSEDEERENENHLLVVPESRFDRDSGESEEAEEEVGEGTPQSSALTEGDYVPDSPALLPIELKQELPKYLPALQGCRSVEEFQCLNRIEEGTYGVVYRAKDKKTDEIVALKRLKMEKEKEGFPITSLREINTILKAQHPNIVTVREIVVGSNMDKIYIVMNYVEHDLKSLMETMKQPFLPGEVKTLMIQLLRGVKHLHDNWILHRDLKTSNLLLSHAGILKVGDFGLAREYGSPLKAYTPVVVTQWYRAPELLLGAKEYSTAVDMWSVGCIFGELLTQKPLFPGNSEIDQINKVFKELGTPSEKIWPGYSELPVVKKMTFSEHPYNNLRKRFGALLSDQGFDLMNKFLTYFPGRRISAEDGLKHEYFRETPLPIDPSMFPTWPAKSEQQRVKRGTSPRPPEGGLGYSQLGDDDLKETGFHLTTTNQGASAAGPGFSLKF
compound,measurement,setting,value
"C=CC(=O)Nc1ccc(OC)c(Nc2cc(-c3[nH]c(CC)nc3-c3cccc(NC(=O)c4cccc5c4NC(=O)c4ccccc4N5)c3)ccn2)c1 [Compound 4, N-(3-(5-(2-((5-Acrylamido-2-methoxyphenyl)amino)pyridin-4-yl)-2-ethyl-1H-imidazol-4-yl)phenyl)-11-oxo-10,11-dihydro-5H-dibenzo[b,e][1,4]diazepine-9-carboxamide]",remaining binding at 1 µM,CDC2L2,91%
same,remaining binding at 1 µM,PIK3CA(E545A),100%
same,remaining binding at 1 µM,EPHB2,100%
same,remaining binding at 1 µM,NEK4,100%
same,remaining binding at 1 µM,p38-alpha,46%
same,remaining binding at 1 µM,PAK1,100%
same,remaining binding at 1 µM,[1],83%
same,remaining binding at 1 µM,PRKD2,62%
same,remaining binding at 1 µM,ALK(C1156Y),87%
same,remaining binding at 1 µM,MAP3K4,100%
same,remaining binding at 1 µM,HPK1,45%
same,remaining binding at 1 µM,DAPK1,86%
same,remaining binding at 1 µM,SIK,100%
same,remaining binding at 1 µM,NIK,100%
same,remaining binding at 1 µM,FLT3(D835V),100%
same,remaining binding at 1 µM,CSF1R,100%
same,remaining binding at 1 µM,IRAK3,39%
same,remaining binding at 1 µM,LIMK2,93%
same,remaining binding at 1 µM,CDK9,100%
same,remaining binding at 1 µM,DYRK1B,88%
same,remaining binding at 1 µM,CDK7,49%
same,remaining binding at 1 µM,QSK,100%
same,remaining binding at 1 µM,CLK1,100%
same,remaining binding at 1 µM,CAMK2A,65%
same,remaining binding at 1 µM,PIK3CA(I800L),100%
same,remaining binding at 1 µM,NEK9,83%
same,remaining binding at 1 µM,[2],37%
same,remaining binding at 1 µM,CSNK1E,88%
same,remaining binding at 1 µM,PIKFYVE,94%
same,remaining binding at 1 µM,LTK,48%
same,remaining binding at 1 µM,TNK2,3.8%
same,remaining binding at 1 µM,ULK1,100%
same,remaining binding at 1 µM,PRKG2,62%
same,remaining binding at 1 µM,FES,28%
same,remaining binding at 1 µM,p38-beta,59%
same,remaining binding at 1 µM,[3],100%
same,remaining binding at 1 µM,RET(V804M),91%
same,remaining binding at 1 µM,FGFR2,100%
